The source of these data is patent US4673678A, “Water soluble derivatives of fredericamycin A” (The United States of America as represented by the …, priority 1986, dated 1987).

Counter-ions that a name gives are not always drawn. Like-named read-outs stand apart in the source and are kept apart here.

One data set in a line: hygroscopicity. It is filed as physicochemical.
Data set [1] is described as follows: solubility. The class given is physicochemical. The settings on record: for solubility: water. As for the experimental part: The potassium salt of fredericamycin A (NSC #601617) is soluble in water with hand shaking for 1 minute, followed by vortexing for 3 minutes. The solubility is about 1.0 mg/ml and gives a transparent blue solution, pH 8.65 with no residue upon membrane filtration (0.22μ, HA, Millipore Products).
Fredericamycin A (15 mg, 0.0278 mmols) is treated with NaOH solution, 1:3 mols (7.65 mls; 0.0109N, degased previously and cooled to 0° C.) in pyridine solution at 0° C. (2.5 ml, degased) under N2 atmosphere. Reaction is carried out by stirring magnetically for 60 minutes under N2 atmosphere. (40 minutes at 0° C. and 20 minutes at 15° C.). The progress of reaction is followed by TLC, HPLC (of hydrolysed product of the Rx mixture) and UV. The resultant blue-green clear reaction mixture is frozen (-70° C.) and lyophilized (48 hrs) until a solid is obtained. […] It is soluble in water (0.5 mg/ml) with hand shake and sonication (15 minutes). […] TLC and HPLC (after hydrolysis) show single spot and single peak respectively showing that the product is pure.
The first indication of the salt formation is observed by solubility studies in water.

The nature of another data set: pH of aqueous solution. The class given is physicochemical.
The next data set is described as follows: stability. The class given is physicochemical.
For data set [2], the system named is fungi (Penicillium notatum). Briefly: antimicrobial activity, disc method, fungi. It is filed as cell-based. Conditions: concentration 0.025 to 5 μg/ml. The protocol: (§1) Protocol for determining antimicrobial activity against Bacillus subtilis and Penicillium notatum
(§2) These were performed by Disc method, using standard assay procedures and the respective microorganism in each case. 15 μl of each sample in DMSO-H H2 O (1:1) is pipetted on to separate 0.25" absorbent paper disc and the assay is performed following routine techniques well known in the art. Zone sizes are read after incubation overnight (Bacillus subtilis) and after 4 days of incubation (Penicillium notatum) at various concentrations.

Data set [3] in a line: solubility. It is filed as physicochemical.
In data set [4] the test system is gram positive bacteria (Bacillus subtilis). The data set can be described thus: antimicrobial activity, disc method, bacteria. It is filed as cell-based. Conditions: concentration 0.025 to 5 μg/ml. The protocol:
as §1, §2

Data set [5] deals with P388 ascites murine leukemia. The data set can be described thus: in vitro cytotoxicity, Microculture Tetrazolium Assay (MTA), P388. Conditions: P388, 5 days culture, FIG. 5. The class given is cell-based. From the text: The assay used for determining in vitro cytotoxic activity of alkali metal salt of FMA is known as "Microculture Tetrazolium Assay" (MTA) developed by the in vitro Cancer Pharmacology R & D Laboratory at NCI-FCRF. The method utilized is a modification of Procedure by T. Mosmann et al., (J. Immunol. Meth. 65:55, 1983 and 70:257, 1984) described by M. C. Alley et al (Proc. AACR. 27:389, 1986). The testing of alkali metal salt of FMA is done using P388 acites murine leukemia as the test system at a inoculation density of about 1000 cells per well and culture duration of 5 days, with various concentration levels of alkali metal salt of FMA vs fredericamycin A. The concentration range could be from 0.1 μg to 10 μg per ml. The results are recorded as percent of control O.D. for each sample dilution.

The subject of the next data set is P388 Lymph. Leukemia. Briefly: in vivo antitumor activity against P388 leukemia. Also on record: species or system CD2F1 mice. Conditions: for % T/C / % T/C: toxicity: i.p. The protocol:
The antitumor activity is determined by contracted accessary testing services according to the National Cancer Institute (NCI) guidelines for natural products (Geran et al. protocols for Screening Chemical Agents and Natural Products Against Animal Tumors and other Biological Systems. Cancer Chemother. Rep. part 3, 3:7-61, 1972; Schepartz: Antitumor Screening Procedures of the National Cancer Institute. Japan J. Antibiotics 30 (Supl): 35-40, 1977.)
Alkali metal salt of FMA is tested in vivo against P338 leukemia. The test is carried out using male CD2F1 mice (wt.=18 g±3 g) in one experiment and female mice (wt, 17 g±3.0 gm) in another experiment. […]
*T/C is the ratio expressed in percent of the median survival time of the
treated group divided by the median survival time of the control group.
NCI criteria of positive (moderate) activity in P388 Leukemia is indicate
by a T/C value of 120%. A T/C value of ≥ 175% is indicative of
**DMSO = Dimethylsulfoxide; i.p = intraperitoneal route of injection.
Potassium salt of fredericamycin A was dissolved in water only.

Another data set deals with Lewis lung carcinoma. Conditions: in vivo; cited from earlier work.
The conditions of data set [6]: general; precluded further toxicological and pharmacological studies; cited from earlier work.
The next data set relates to LX-1 lung xenograft. Conditions: in vivo; cited from earlier work.
The subject of a further data set is fungi. The settings on record: cited from earlier work.
Another data set relates to B16 melanoma. The settings on record: in vivo; cited from earlier work.
Another data set has as its system mouse leukemia P388. The settings on record: cited from earlier work.
In another data set the test system is P388 leukemic cells. The settings on record: in vivo; cited from earlier work.
For the next data set, the system named is Gram-negative bacteria. Conditions: cited from earlier work.
The next data set deals with Gram-positive bacteria. The settings on record: cited from earlier work.
The test system of the next data set is L1210 leukemia. Conditions: in vivo; cited from earlier work.
A further data set concerns MX-1 breast xenograft. The settings on record: in vivo; cited from earlier work.
Another data set deals with CD8F mouse mammary tumor. Conditions: in vivo; cited from earlier work.
The next data set has as its system C38 colon tumor. The settings on record: in vivo; cited from earlier work.
For a further data set, the system named is mouse leukemia L1210. The settings on record: in vitro, compared with actinomycin D and adriamycin; cited from earlier work.

As a reminder, the solubility is the dissolved amount per volume that the medium holds.

On to `C/C=C/C=C/c1cc2cc3c(c(O)c2c(=O)[nH]1)C1(CC3)C(=O)c2c(O)c3c(c(O)c2C1=O)C(=O)C(OC)=CC3=O` (stereo not drawn) [Na-FMA, sodium salt of fredericamycin A], for which, in “hygroscopicity”, the hygroscopicity entry is reported as “highly hygroscopic”. In the data set “solubility [1]” (hand shake and sonication (15 minutes)), the solubility worked out at 500 µg/mL. Further, the “pH (water)” value in “pH of aqueous solution” (0.5 mg/ml in water) is 9.2±0.5. For the same compound, the “stability of aqueous solution on longer standing” value in “stability” (water, room temperature) is “hydrolyzing back to fredericamycin A”.

As to `C/C=C/C=C/c1cc2cc3c(c(O)c2c(=O)[nH]1)C1(CC3)C(=O)c2c(O)c3c(c(O)c2C1=O)C(=O)C(OC)=CC3=O` (stereo not drawn) [KFMA, potassium salt of fredericamycin A], the zone size in data set [2] and in [4] was 9.5 mm each time. In addition, the solubility in the data set “solubility [1]” (Table 1) is 1000 µg/mL; in the data set “solubility [1]” (solubility studies in water), about 1000 µg/mL; in the data set “solubility [3]” (dmso-saline 5:95, organic solvent or mixture, read-out: solubility in dimethylsulfoxide-saline (5:95)) it was 1000 µg/mL; in “solubility [3]” (dmso-saline 10:90, organic solvent or mixture, solution is transparent blue, read-out: solubility in dimethylsulfoxide-saline (10:90)), 1000 µg/mL; in the data set “solubility [3]” (dmso-water 1:1, organic solvent or mixture, Readily Soluble, read-out: solubility in dimethylsulfoxide-water (1:1)), 3000 µg/mL; in “solubility [3]” (dmso-water 5:95, organic solvent or mixture, read-out: solubility in dimethylsulfoxide-water (5:95)), 1500 µg/mL. Moreover, the solubility in the data set “solubility [3]” (water, hand shaking 1 minute, vortexing 3 minutes, read-out: solubility in water) is about 1000 µg/mL. The “pH (H2O)” value in the data set “pH of aqueous solution” (Table 1) was determined as 8.9 ± 0.2. Moreover, the “pH of aqueous solution” value in the data set “pH of aqueous solution” (about 1.0 mg/ml in water) came to 8.65. The “solubility in chloroform-methanol-acetic acid (87:3:3) and methanol” value in “solubility [3]” was “Soluble”. The “solubility in dimethylacetamide, dimethylformamide, pyridine” value in “solubility [3]” is “Readily Soluble”. Besides, the “solubility in ethylacetate, acetonitrile and chloroform” value in the data set “solubility [3]” was “Sparingly soluble”. Further, the “solubility in hexanes, ether, acetone, benzene and carbon tetra chloride” value in “solubility [3]” is recorded as “Insoluble”. Moreover, the “solubility in dimethyl sulfoxide” value in “solubility [3]” (Readily Soluble) is 8 mg/1.5 ml. Further, the “stability of DMSO solution (anhydrous)” value is recorded as “several days” in the data set “stability” (0° C./dark) and “fairly stable” in “stability” (room temp, 4 hrs). Also, the “stability of anhydrous salt” value in the data set “stability” (anhydrous, room temp.) is “stable”. Besides, the “stability of anhydrous salt, duration in words” value in “stability” (anhydrous, room temperature) is recorded as “stable for extended period of time”. Further, in the data set “stability” (high vacuum, 4 hrs), the “temperature safely heated to with no decomposition” value was “up to 60 °C”. Besides, the “hydrolysis to fredericamycin A” value in the data set “stability” (in presence of moisture, acid) is recorded as “Easily hydrolysable”. Moreover, the storage stability result in “stability” (sealed under nitrogen, anhydrous, amber container, 0° C. over silica gel) was “stable for several months”. In “stability” (water, about 1.0 mg/ml, room temperature), the “stability of aqueous solution” value is given as “stable for almost an hour”. Further, the “in vitro cytotoxic activity as compared to that of FMA” value in data set [5] is on record as “equal or better”. The “T/C value” with P388 Lymph. Leukemia (1 mg/kg level) is on record as 178%. Besides, the “% T/C” value in the data set on P388 Lymph. Leukemia (Expt #1, 0.125 mg/kg, water) stood at 119%; in the data set on P388 Lymph. Leukemia (Expt #1, 0.25 mg/kg, water) it was 119%; in the data set on P388 Lymph. Leukemia (Expt #1, 0.50 mg/kg, water), 153%; in the data set with P388 Lymph. Leukemia (Expt #1, 1.00 mg/kg, water), 178%; with P388 Lymph. Leukemia (Expt #1, .063 mg/kg, water), 110%; in the data set on P388 Lymph. Leukemia (Expt #2, 0.125 mg/kg, water), 120%. Moreover, the “% T/C” value is on record as 132% in the data set on P388 Lymph. Leukemia (Expt #2, 0.25 mg/kg, water); 160% in the data set on P388 Lymph. Leukemia (Expt #2, 0.50 mg/kg, water); 175% in the data set with P388 Lymph. Leukemia (Expt #2, 1.00 mg/kg, water); 112% in the data set on P388 Lymph. Leukemia (Expt #2, .063 mg/kg, water). Further, the “% T/C: toxicity” value in the data set on P388 Lymph. Leukemia (Expt #1, 2.00 mg/kg, water) was “Toxic”. For the same compound, the “activity against P388 leukemia, in words” value in the data set on P388 Lymph. Leukemia (all experiments performed) is given as “significant activity”. In addition, in the data set on P388 Lymph. Leukemia (male vs female mice), the “differences between male and female mice” value is listed as “no differences observed”.

Take `C/C=C/C=C/c1cc2cc3c(c(O)c2c(=O)[nH]1)C1(CC3)C(=O)c2c(O)c3c(c(O)c2C1=O)C(=O)C(OC)=CC3=O` (stereo not drawn) [fredericamycin A]: in the data set on Lewis lung carcinoma, the “activity against Lewis lung carcinoma” value was “ineffective”. In data set [6], the solubility entry was “poor solubility”. Further, the “activity against LX-1 lung xenograft” value with LX-1 lung xenograft was “ineffective”. The activity against fungi entry in the data set on fungi was “good activity”. Moreover, in the data set on B16 melanoma, the “activity against B16 melanoma” value is on record as “marginal activity”. In addition, the cytotoxicity entry in the data set on mouse leukemia P388 (in general, cells not specified) is recorded as “very cytotoxic”. The “ED50 against P388” value with mouse leukemia P388 (in vitro, compared with actinomycin D and adriamycin) is “compared closely to the reported values for actinomycin D and adriamycin”. For the same compound, in the data set on P388 leukemic cells, the “extending the life span of mice inoculated with P388” value is “effective”. Further, the “solubility in water, in words” value in “solubility [1]” was “almost insoluble”; in “solubility [1]” (listed as FMA), “virtually insoluble”. The “activity against Gram-negative bacteria” value in the data set with Gram-negative bacteria was “no activity”. In addition, the “activity against Gram-positive bacteria” value with Gram-positive bacteria is given as “good activity”. In the data set with L1210 leukemia, the “activity against L1210 leukemia” value is “ineffective”. In the data set on MX-1 breast xenograft, the “activity against MX-1 breast xenograft” value is given as “ineffective”. Moreover, in the data set on CD8F mouse mammary tumor, the “reducing the median tumor weight” value was “effective”. Moreover, in the data set on C38 colon tumor, the “activity against C38 colon tumor” value is “ineffective”. The “ED50 against L1210” value in the data set with mouse leukemia L1210 is “compared closely to the reported values for actinomycin D and adriamycin”. Also, the “% T/C” value with P388 Lymph. Leukemia (0.06 mg/kg, DMSO) came out at 122%; in the data set on P388 Lymph. Leukemia (0.12 mg/kg, DMSO), 146%; in the data set on P388 Lymph. Leukemia (0.25 mg/kg, DMSO) it was 134%; with P388 Lymph. Leukemia (0.50 mg/kg, DMSO), 200%; in the data set with P388 Lymph. Leukemia (1.00 mg/kg, DMSO), 160%. Moreover, the “% T/C: toxicity” value in the data set with P388 Lymph. Leukemia (>1.00 mg/kg, DMSO) is “Toxic”.
